Test results published in patent publication US20260234207A1, “Keratin YK93-8, and Preparation Method Therefor, Pharmaceutical Composition Thereof and Use Thereof” (INSTITUTE OF MATERIA MEDICA, CHINESE ACADEMY OF MEDICAL …, priority 2022, published 2026).
Counter-ions that a name gives are not always drawn. Like-named read-outs stand apart in the source and are kept apart here.

Legend:
[1] = tested on: mouse prostatic hyperplasia model; test: Pharmacodynamic test on mouse prostatic hyperplasia model (propionate testosterone, androgen loading); conditions: for Average weight / wet weight of the prostate: 30 days of administration; for prostate index: 30 days, wet weight of the prostate (mg)/body weight (g)
Description: Preparation of experimental animals: The experimental animals were adapted to the experimental environment (temperature 22° C.±2° C., relative humidity 50%±2%) for 1 day.
Subcutaneous injection of propionate testosterone to replicate mice prostatic hyperplasia model: Mice were randomly grouped 10 in each group before the model being established. Propionate testosterone (0.01 mg/kg) in soybean oil was injected subcutaneously, once a day for 30 consecutive days. Mice in the normal control group were injected subcutaneously with an equal volume of sodium carboxymethyl cellulose. […] Mice were weighed on the next day. After 30 days of administration, mice were weighed, executed. The prostate was excised through a median incision in the lower abdomen, the wet weight was weighed, and the prostate index was calculated by the wet weight of the prostate (mg)/body weight of the mouse (g).
The average value, standard deviation and standard error of the prostate index in each group were calculated. The data from the groups were compared with each other by T.TEST, and P<0.05 was considered as a significant difference.

Lewis lung cancer = tested on: Lewis lung cancer
Description: Subcutaneous inoculation of Lewis cell suspension to replicate mouse Lewis lung cancer model: The Lewis tumor tissue was ground into a suspension with a glass homogenizer, the tumor suspension was aspirated with a syringe, the number of live cells was calculated, the concentration of the cells was adjusted to 2.6*10^6/ml with physiological saline, and then the suspension was injected to the left armpit of the mouse with 0.2 ml/mouse. On the next day, the mice were randomly divided into normal control group, cyclophosphamide (100 mg/kg) group, and YK93-8 (0.5 g/kg) group. Cyclophosphamide was injected intraperitoneally for single time, mice in YK93-8 group were given intragastric administration every day for 10 consecutive days, mice in the normal control group were orally given the equal volume of sodium carboxymethyl cellulose. On the day of the treatment, the weight was measured, 20 μl of blood was obtained from the orbital blood and the routine blood analysis was performed. The tumor blocks were stripped, weighed and photographed, and the tumor suppression rate was calculated.
The tumor suppression rate [(The average weight of the tumor in the normal control group—the average weight of the tumor in the experimental group)/The average weight of the tumor in the normal control group×100%] and the average value, standard deviation and standard errors of tumor weight were calculated.

EL-4 lymphoma = tested on: EL-4 lymphoma
Description: • Animals: Male C57BL/6J mice • Drugs: Cyclophosphamide for injection (CTX), YK93-8 • Instruments: electronic balance, Five classified blood cell analyser • Experiment grouping: • Normal control group; • Positive control group: cyclophosphamide (100 mg/kg); • Protein YK93-8, (2 g/kg) group. • Method:
Subcutaneous inoculation of EL-4 cell suspension to replicate a mouse lymphoma model: The EL-4 tumor tissue was ground into a suspension using a glass homogenizer, the tumor suspension was aspirated with a syringe, the number of live cells was calculated, the cell concentration was adjusted to 2.0*10^6/ml with physiological saline, and then the suspension was injected into the left armpit of mice with 0.2 ml/mouse. On the next day, mice were randomly divided into a normal control group, a cyclophosphamide (100 mg/kg) group, and a YK93-8 (2 g/kg) group. Cyclophosphamide was injected intraperitoneally for single time, mice in the YK93-8 (2 g/kg) group were orally administered by gavage daily for 13 consecutive days, while mice in the normal control group were administered orally with an equal volume of sodium carboxymethyl cellulose. On the day of treatment, weight was measured, 20 μl of blood was obtained from the orbital blood and the routine blood analysis was performed. The tumor blocks were stripped, weighed and photographed, and the tumor suppression rate was calculated.
(§1) The tumor suppression rate [(The average weight of the tumor in the normal control group—the average weight of the tumor in the experimental group)/The average weight of the tumor in the normal control group×100%] and average value, standard deviation and standard errors of tumor weight were calculated.

B16F10 melanoma = tested on: B16F10 melanoma
Description: • Animals: female C57BL/6J mice; • Drugs: Cyclophosphamide for injection (CTX), YK93-8 • Instruments: electronic balance, Five classified blood cell analyser • Experiment grouping: • Normal control group; • Positive control group: cyclophosphamide group (100 mg/kg); • Protein YK93-8, (2 g/kg) group. • Method:
Subcutaneous inoculation of B16F10 cell suspension to replicate a mouse melanoma model: Under sterile conditions, the tumor block was removed, ground into tumor fluid, the concentration was adjusted with physiological saline to 2.58×10^6/ml, and 0.2 ml was taken to evenly inoculate subcutaneously on the armpit back of mice. On the next day, the animals were randomly grouped and administration began (recorded as Day 0). CTX (100 mg/kg) was administered once a week, YK-93-8 (2 g/kg) was administered daily, and mice in the normal control group were orally administered an equal volume of sodium carboxymethyl cellulose. On the day of treatment, weight was measured, 20 μL of blood was obtained by taking blood from the eye socket and the blood routine analysis was performed, the tumor block was peeled off, weighed and photographed, and the tumor suppression rate was calculated.
as §1

[2] = tested on: acetic acid-induced writhing of mice; test: Pharmacodynamic test on mouse pain model (acetic acid-induced writhing); assay type: in vivo, Male Kunming mice; conditions: 1% acetic acid intraperitoneally, writhing within 15 minutes
Description: • Animals: Male Kunming mice; • Drugs: Tramadol Hydrochloride Sustained Release Tablets, Glacial acetic acid, YK93-8; • Instruments: electronic balance, timer • Experiment grouping: • Normal control group; • Positive control group: Tramadol Hydrochloride group; • Protein YK93-8, (0.5 g/kg) group. • Method:
Mice in the YK93-8 (0.5 g/kg) group were administered by gavage, while mice in the model group were given an equal volume of CMC-Na once a day for 7 consecutive days. 30 minutes after the last administration, 1% acetic acid was administered intraperitoneally, and the writhing times of mice within 15 minutes was recorded, and the inhibition rate of drug-induced writhing reaction was calculated. The observation criteria were concave abdominal cavity, extended hind limbs, and raised buttocks.
The inhibition rate was calculated by (Mean number of writhing reactions in the normal control group−Mean number of writhing reactions in the treatment group)/Mean number of writhing reactions in the normal control group *100%.

[3] = tested on: lactation of pregnant mice; test: Pharmacodynamic test on lactation of pregnant mice; assay type: in vivo, female Kunming pregnant mice; conditions: 2 g/kg by gavage, 13 days
Description: • Animals: female Kunming pregnant mice, weight: 30-50 grams • Drug: YK93-8 • Instruments: electronic balance • Experiment grouping: • Normal control group; • Protein YK93-8, (2 g/kg) group. • Method:
The parturition date of each pregnant mouse was recorded and the mice were randomly divided into normal control group and YK 93-8 group based on the parturition date.
YK93-8 (2 g/kg) was administered by gavage, and the weight and weight gain of the young mice were recorded daily. After 13 days of administration, the female mouse was euthanized using cervical dislocation method, and […] of blood samples were collected from the eye socket, left standing at room temperature for 1-2 hours, centrifuged 1000 g for 20 minutes. The content of prolactin in serum was measured.
The average daily weight gain of young mice (lactation yield of female mice) and serum prolactin content of female mice in each group were calculated.

[4] = 0.1 g/kg intraperitoneally, single time
[5] = 100 mg/kg intraperitoneally, single time, P<0.05
[6] = 0.5 g/kg intragastric every day for 10 days
[7] = 2 g/kg by gavage daily for 13 days

CC(C)(C)NC(=O)[C@H]1CC[C@H]2[C@@H]3CC[C@H]4NC(=O)C=C[C@]4(C)[C@H]3CC[C@]12C [finasteride]
Average weight ([1]; 1 mg/kg orally): 43.5 ± 3.5 g
wet weight of the prostate ([1]; 1 mg/kg orally): 31.8 ± 4.8 mg
prostate index ([1]; 1 mg/kg orally): 0.75 ± 0.12
Average weight ([1]; 3 mg/kg orally): 40.7 ± 3.1 g
wet weight of the prostate ([1]; 3 mg/kg orally): 29.2 ± 1.4 mg
prostate index ([1]; 3 mg/kg orally): 0.72 ± 0.08

O=P1(N(CCCl)CCCl)NCCCO1 (stereo not drawn) [cyclophosphamide, Cyclophosphamide]
Change of weight (g) Before administration (Lewis lung cancer; 0.1 g/kg group): 17.60 ± 0.59 g
Change of weight (g) After administration (Lewis lung cancer; [4]): 19.95 ± 0.77 g
Tumor suppression (%) (Lewis lung cancer; [4]): 95.35%
Tumor weight (Lewis lung cancer; [4]): 0.14 ± 0.09 g
Tumor suppression (%) (EL-4 lymphoma; [4]): 95.67%
Tumor weight (EL-4 lymphoma; [4]): 0.12 ± 0.03 g
leukocytes (blood routine test) (EL-4 lymphoma; [5]): significantly reduced
lymphocytes (blood routine test) (EL-4 lymphoma; [5]): significantly reduced
monocytes (blood routine test) (EL-4 lymphoma; [5]): significantly reduced
neutrophils (blood routine test) (EL-4 lymphoma; [5]): significantly reduced
Change of weight (g) Before administration (B16F10 melanoma; 0.1 g/kg group): 18.97 ± 0.55 g
Change of weight (g) After administration (B16F10 melanoma; 0.1 g/kg once a week): 19.07 ± 1.46 g
Tumor suppression (%) (B16F10 melanoma; 0.1 g/kg once a week): 85.82%
Tumor weight (B16F10 melanoma; 0.1 g/kg once a week): 0.26 ± 0.11 g

COc1cccc(C2(O)CCCCC2CN(C)C)c1 (stereo not drawn) [Tramadol Hydrochloride]
Number of writhing ([2]; 50 mg/kg): 0.0 ± 0.00

B1: YK93-8: keratin with the amino acid sequence shown in SEQ ID NO.1, expressed in Escherichia coli, band around 63 KD; protein of Example 3 (protein, listed as Manis pentadactyla)
chain: MSCRSYRVSSGRQIGNFSSCSAVMPQSLSRFRASSVSCRSGPGFRGLGGFGSRSVIAFGSCPPRMAAVGPRPIRCGVGFSAGSGLAFGLGDSCGAGLGFGTGSGLGYGFGGPGFGYRIGGVGVPAAPSITAVTVNQSLLTPLNLEIDPNAQRVKRDEKEQIKTLNNKFASFIDKVRFLEQQNKLLETKWNFLQDQKGVQSNLEPLFENYVANLRRQLDIVSSDQARLETERNNMQDVLEGFKKKYEEEVVFRANAENEFVALKKDVDAAFLNKSDLEANVDALIQEIDFLKNLYMAEIQLLQSHISDTSVIVKMDNSRDLNFDGIIAEVKAQYEEVARRSRADAEAWYQTKYEEMRMTAGQHSDNLRNTRDEINELTRVIQRLKAEIEHTKAQRAKLEAAIAEAEQQGEAALNDAKCKLADLEAALQQAKQDMARQLREYQELMNIKLALDIEIATYRRLLEGEEIRICEGVGPVNISVSSSRGGVVCGPEPLLTSSTLSRGGVTFSGGSSIRSSGACGLSLGGSRVVAAGGDVLSAGSRGGSVLVGDACAPSIPCPLPTDGGFSSCSGGRSSLGSSVRFVSTTTSRRTKY
Change of weight (g) Before administration (Lewis lung cancer; 0.5 g/kg group): 17.91 ± 0.26 g
Change of weight (g) After administration (Lewis lung cancer; [6]): 21.93 ± 0.93 g
Tumor suppression (%) (Lewis lung cancer; [6]): 27.83%
Tumor weight (Lewis lung cancer; [6]): 2.16 ± 0.47 g
weight gain of young mice (lactation yield of female mice) [3]: no significant effect
serum prolactin content in female mouse ([3]; vs normal control group): to some extent increase
Tumor suppression (%) (EL-4 lymphoma; [7]): 13.18%
Tumor weight (EL-4 lymphoma; [7]): 2.44 ± 0.23 g
Number of writhing ([2]; 0.5 g/kg by gavage once a day for 7 days): 13.76 ± 11.84
Change of weight (g) After administration (B16F10 melanoma; 2 g/kg daily): 19.78 ± 0.76 g
Tumor suppression (%) (B16F10 melanoma; 2 g/kg daily): 50.18%
Tumor weight (B16F10 melanoma; 2 g/kg daily): 0.90 ± 0.41 g
Change of weight (g) Before administration (B16F10 melanoma; 2 g/kg group): 19.20 ± 0.54 g
wet weight of the prostate ([1]; 0.5 g/kg orally): 44.3 ± 9.3 mg
prostate index ([1]; 0.5 g/kg orally): 1.12 ± 0.20
